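Test compounds were applied to cells in 96-well plates for 48 hours at 5 doses. GI50: concentration for 50% inhibition of growth. Definition used: TGI = concentration required for complete inhibition of growth.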
Key:
Experiment in all cases: NCI tumour cell line growth inhibition, 48 h
786-0 renal = system: 786-0 renal
A498 renal = system: A498 renal
A549 NSCLC = system: A549 NSCLC
ACHN renal = system: ACHN renal
BT-549 breast = system: BT-549 breast
CAKI-1 renal = system: CAKI-1 renal
COLO 205 colon = system: COLO 205 colon
DU-145 prostate = system: DU-145 prostate
EKVX NSCLC = system: EKVX NSCLC
HCT-116 colon = system: HCT-116 colon
HCT-15 colon = system: HCT-15 colon
HL-60(TB) leukemia = system: HL-60(TB) leukemia
HS 578T breast = system: HS 578T breast
HT29 colon = system: HT29 colon
IGROV1 ovarian = system: IGROV1 ovarian
K-562 leukemia = system: K-562 leukemia
KM12 colon = system: KM12 colon
LOX IMVI melanoma = system: LOX IMVI melanoma
M14 melanoma = system: M14 melanoma
MCF7 breast = system: MCF7 breast
MDA-MB-231 breast = system: MDA-MB-231 breast
MDA-MB-435 = system: MDA-MB-435
MOLT-4 leukemia = system: MOLT-4 leukemia
NCI-H226 lung = system: NCI-H226 lung
NCI-H23 lung = system: NCI-H23 lung
NCI-H460 lung = system: NCI-H460 lung
NCI-H522 lung = system: NCI-H522 lung
NCI/ADR-RES ovarian = system: NCI/ADR-RES ovarian
OVCAR-3 ovarian = system: OVCAR-3 ovarian
OVCAR-4 ovarian = system: OVCAR-4 ovarian
OVCAR-5 ovarian = system: OVCAR-5 ovarian
OVCAR-8 ovarian = system: OVCAR-8 ovarian
PC-3 prostate = system: PC-3 prostate
RPMI-8226 leukemia = system: RPMI-8226 leukemia
RXF 393 renal = system: RXF 393 renal
SF-268 CNS = system: SF-268 CNS
SF-295 CNS = system: SF-295 CNS
SF-539 CNS = system: SF-539 CNS
SK-MEL-2 melanoma = system: SK-MEL-2 melanoma
SK-MEL-28 melanoma = system: SK-MEL-28 melanoma
SK-MEL-5 melanoma = system: SK-MEL-5 melanoma
SN12C renal = system: SN12C renal
SNB-19 CNS = system: SNB-19 CNS
SNB-75 CNS = system: SNB-75 CNS
SR leukemia = system: SR leukemia
SW-620 colon = system: SW-620 colon
TK-10 renal = system: TK-10 renal
U251 CNS = system: U251 CNS
UACC-257 melanoma = system: UACC-257 melanoma
UACC-62 melanoma = system: UACC-62 melanoma
UO-31 renal = system: UO-31 renal

SMILES: OCC#Cc1ccccc1C#Cc1ccc(C#Cc2ccccc2)cc1
- GI50 (786-0 renal): 23.5 µM
- TGI (786-0 renal): 55.9 µM
- GI50 (A498 renal): 15.6 µM
- TGI (A498 renal): 30.8 µM
- GI50 (A549 NSCLC): 15.3 µM
- TGI (A549 NSCLC): 33.3 µM
- GI50 (ACHN renal): 18.9 µM
- TGI (ACHN renal): 37 µM
- GI50 (BT-549 breast): 35.6 µM
- TGI (BT-549 breast): > 100 µM
- GI50 (CAKI-1 renal): 44.5 µM
- TGI (CAKI-1 renal): > 100 µM
- GI50 (COLO 205 colon): 24.9 µM
- TGI (COLO 205 colon): 70.7 µM
- GI50 (DU-145 prostate): 16.7 µM
- TGI (DU-145 prostate): 34.4 µM
- GI50 (EKVX NSCLC): 25.2 µM
- TGI (EKVX NSCLC): 77.9 µM
- GI50 (HCT-116 colon): 16.6 µM
- TGI (HCT-116 colon): 32.3 µM
- GI50 (HCT-15 colon): 18.1 µM
- TGI (HCT-15 colon): 38.5 µM
- GI50 (HL-60(TB) leukemia): 0.489 µM
- TGI (HL-60(TB) leukemia): > 100 µM
- GI50 (HS 578T breast): 31 µM
- TGI (HS 578T breast): > 100 µM
- GI50 (HT29 colon): 12.7 µM
- TGI (HT29 colon): 33.5 µM
- GI50 (IGROV1 ovarian): 28.4 µM
- TGI (IGROV1 ovarian): > 100 µM
- GI50 (K-562 leukemia): 3.92 µM
- TGI (K-562 leukemia): 26.3 µM
- GI50 (KM12 colon): 17.3 µM
- TGI (KM12 colon): 34.3 µM
- GI50 (LOX IMVI melanoma): 24.6 µM
- TGI (LOX IMVI melanoma): > 100 µM
- GI50 (M14 melanoma): 17.5 µM
- TGI (M14 melanoma): 43.9 µM
- GI50 (MCF7 breast): 15.9 µM
- TGI (MCF7 breast): 38.3 µM
- GI50 (MDA-MB-231 breast): 20 µM
- TGI (MDA-MB-231 breast): 37.5 µM
- GI50 (MDA-MB-435): 21 µM
- TGI (MDA-MB-435): 49.5 µM
- GI50 (MOLT-4 leukemia): 2.65 µM
- TGI (MOLT-4 leukemia): 43.5 µM
- GI50 (NCI-H226 lung): 18.4 µM
- TGI (NCI-H226 lung): 43 µM
- GI50 (NCI-H23 lung): 18.2 µM
- TGI (NCI-H23 lung): 37 µM
- GI50 (NCI-H460 lung): 20.5 µM
- TGI (NCI-H460 lung): 79.8 µM
- GI50 (NCI-H522 lung): 55.2 µM
- TGI (NCI-H522 lung): > 100 µM
- GI50 (NCI/ADR-RES ovarian): 17.6 µM
- TGI (NCI/ADR-RES ovarian): 59.1 µM
- GI50 (OVCAR-3 ovarian): 27.3 µM
- TGI (OVCAR-3 ovarian): 48.7 µM
- GI50 (OVCAR-4 ovarian): 20.4 µM
- TGI (OVCAR-4 ovarian): > 100 µM
- GI50 (OVCAR-5 ovarian): 17.7 µM
- TGI (OVCAR-5 ovarian): 34.9 µM
- GI50 (OVCAR-8 ovarian): 23.1 µM
- TGI (OVCAR-8 ovarian): 57 µM
- GI50 (PC-3 prostate): 15.1 µM
- TGI (PC-3 prostate): 34.2 µM
- GI50 (RPMI-8226 leukemia): 6.05 µM
- TGI (RPMI-8226 leukemia): 22.2 µM
- GI50 (RXF 393 renal): 26.2 µM
- TGI (RXF 393 renal): 54.3 µM
- GI50 (SF-268 CNS): 23.7 µM
- TGI (SF-268 CNS): > 100 µM
- GI50 (SF-295 CNS): 37.7 µM
- TGI (SF-295 CNS): > 100 µM
- GI50 (SF-539 CNS): 21.4 µM
- TGI (SF-539 CNS): 45.6 µM
- GI50 (SK-MEL-2 melanoma): 51.4 µM
- TGI (SK-MEL-2 melanoma): > 100 µM
- GI50 (SK-MEL-28 melanoma): 38.3 µM
- TGI (SK-MEL-28 melanoma): > 100 µM
- GI50 (SK-MEL-5 melanoma): 11.8 µM
- TGI (SK-MEL-5 melanoma): 25.8 µM
- GI50 (SN12C renal): 19 µM
- TGI (SN12C renal): 35.6 µM
- GI50 (SNB-19 CNS): 35.9 µM
- TGI (SNB-19 CNS): > 100 µM
- GI50 (SNB-75 CNS): 32.4 µM
- TGI (SNB-75 CNS): > 100 µM
- GI50 (SR leukemia): 11.5 µM
- TGI (SR leukemia): 44.8 µM
- GI50 (SW-620 colon): 17.2 µM
- TGI (SW-620 colon): 44.4 µM
- GI50 (TK-10 renal): 13 µM
- TGI (TK-10 renal): 32.9 µM
- GI50 (U251 CNS): 19.9 µM
- TGI (U251 CNS): 38.6 µM
- GI50 (UACC-257 melanoma): 27.6 µM
- TGI (UACC-257 melanoma): 69.8 µM
- GI50 (UACC-62 melanoma): 19.9 µM
- TGI (UACC-62 melanoma): 36.1 µM
- GI50 (UO-31 renal): 28.6 µM
- TGI (UO-31 renal): > 100 µM
